Series [1] in a line: Determination of the microsomal half-life / microsomal clearance, rat liver microsomes. The format is in vitro ADME. To be noted: 0.5 μM test substance, 0.25 mg of microsomal protein/mL, NADPH, 37° C. As to the method:
(§1) b) Determination of the Microsomal Half-Life:
(§2) The metabolic stability of the compounds of the invention was determined in the following assay.
(§3) The test substances were incubated in a concentration of 0.5 μM as follows:
(§4) 0.5 μM test substance are preincubated together with liver microsomes from different species (from rat, human or other species) (0.25 mg of microsomal protein/mL) in 0.05 M potassium phosphate buffer of pH 7.4 in microtiter plates at 37° C. for 5 min. The reaction is started by adding NADPH (1 mg/mL). After 0, 5, 10, 15, 20 and 30 min, 50 μl aliquots are removed, and the reaction is immediately stopped and cooled with the same volume of acetonitrile. The samples are frozen until analyzed. The remaining concentration of undegraded test substance is determined by MSMS. The half-life (T½) is determined from the gradient of the signal of test substance/unit time plot, it being possible to calculate the half-life of the test substance, assuming first order kinetics, from the decrease in the concentration of the compound with time. The microsomal clearance (mCl) is calculated from mCl=ln 2/T½/(content of microsomal protein in mg/mL)×1000 [mL/min/mg] (modified from references: Di, The Society for Biomoleculur Screening, 2003, 453-462; Obach, DMD, 1999 vol 27. N 11, 1350-1359).
(Microsomes from liver hold many membrane-bound enzymes, among them those of drug oxidation.)

Series [2] is described as follows: Determination of the microsomal half-life / microsomal clearance, human liver microsomes. Conditions: 0.5 μM test substance, 0.25 mg of microsomal protein/mL, NADPH, 37° C. In kind it is in vitro ADME. The method, then: as §1, §2, §3, §4

As for `Cn1nc(-c2ccncc2)c2scc(-c3cnn(Cc4ccccc4)c3)c2c1=O.O=C(O)C(F)(F)F.O=C(O)C(F)(F)F` [Example 41, 3-(1-benzyl-1H-pyrazol-4-yl)-5-methyl-7-(pyridin-4-yl)thieno[2,3-d]pyridazin-4(5H)-one bis(trifluoroacetate)], the “Rat mCl” value in series [1] is recorded as “++ (++: <100 μl min^−1 mg^−1)”. Further, in series [2], the “Human mCl” value is given as “+ (+: 100-220 μl min^−1 mg^−1)”.

In the case of `CN1CCN(Cc2cccc(-c3csc4c(-c5ccncc5)nn(C)c(=O)c34)c2)CC1.O=C(O)C(F)(F)F.O=C(O)C(F)(F)F.O=C(O)C(F)(F)F` [Example 42, 5-methyl-3-{3-[(4-methylpiperazin-1-yl)methyl]phenyl}-7-(pyridin-4-yl)thieno[2,3-d]pyridazin-4(5H)-one tris(trifluoroacetate)], the “Rat mCl” value in series [1] is on record as “++ (++: <100 μl min^−1 mg^−1)”. Moreover, in series [2], the “Human mCl” value is recorded as “+ (+: 100-220 μl min^−1 mg^−1)”.

On to `CN1CCN(Cc2ccc(-c3csc4c(-c5ccncc5)nn(C)c(=O)c34)cc2)CC1.O=C(O)C(F)(F)F.O=C(O)C(F)(F)F.O=C(O)C(F)(F)F` [Example 43, 5-methyl-3-{4-[(4-methylpiperazin-1-yl)methyl]phenyl}-7-(pyridin-4-yl)thieno[2,3-d]pyridazin-4(5H)-one tris(trifluoroacetate)], for which the “Rat mCl” value in series [1] is reported as “++ (++: <100 μl min^−1 mg^−1)”. For the same compound, the “Human mCl” value in series [2] is “++ (++: <100 μl min^−1 mg^−1)”.

In the case of `Cn1nc(N2CCCCC2)c2scc(-c3ccncc3)c2c1=O` [Example 47, 5-methyl-7-(piperidin-1-yl)-3-(pyridin-4-yl)thieno[2,3-d]pyridazin-4(5H)-one], the “Rat mCl” value in series [1] is listed as “+ (+: 100-220 μl min^−1 mg^−1)”. The “Human mCl” value in series [2] is listed as “+ (+: 100-220 μl min^−1 mg^−1)”.

On to `CN1CCN(c2nn(C)c(=O)c3c(-c4ccncc4)csc23)CC1` [Example 49, 5-methyl-7-(4-methylpiperazin-1-yl)-3-(pyridin-4-yl)thieno[2,3-d]pyridazin-4(5H)-one], for which the “Rat mCl” value in series [1] is recorded as “++ (++: <100 μl min^−1 mg^−1)”. Besides, the “Human mCl” value in series [2] is “++ (++: <100 μl min^−1 mg^−1)”.

For the compound `Cn1nc(OC2CCCCC2)c2scc(-c3ccncc3)c2c1=O.O=C(O)C(F)(F)F` [Example 53, 7-(cyclohexyloxy)-5-methyl-3-(pyridin-4-yl)thieno[2,3-d]pyridazin-4(5H)-one trifluoroacetate], the “Rat mCl” value in series [1] is “+ (+: 100-220 μl min^−1 mg^−1)”. In series [2], the “Human mCl” value is on record as “++ (++: <100 μl min^−1 mg^−1)”.

In the case of `Cn1nc(OCC2CCCCC2)c2scc(-c3ccncc3)c2c1=O` [Example 57, 7-(cyclohexylmethoxy)-5-methyl-3-(pyridin-4-yl)thieno[2,3-d]pyridazin-4(5H)-one], the “Rat mCl” value in series [1] is “+ (+: 100-220 μl min^−1 mg^−1)”. Further, the “Human mCl” value in series [2] is recorded as “+ (+: 100-220 μl min^−1 mg^−1)”.

With `CC(C)c1cccc(COc2nn(C)c(=O)c3c(-c4ccncc4)csc23)c1.O=C(O)C(F)(F)F` [Example 65, 5-methyl-7-{[3-(propan-2-yl)benzyl]oxy}-3-(pyridin-4-yl)thieno[2,3-d]pyridazin-4(5H)-one trifluoroacetate], the “Rat mCl” value in series [1] is recorded as “+ (+: 100-220 μl min^−1 mg^−1)”. Also, the “Human mCl” value in series [2] is “∘ (∘ not avialable or >220 μl min^−1 mg^−1)”.

With `Cn1nc(OCC2CCC(F)(F)CC2)c2scc(-c3ccncc3)c2c1=O` [Example 66, 7-[(4,4-difluorocyclohexyl)methoxy]-5-methyl-3-(pyridin-4-yl)thieno[2,3-d]pyridazin-4(5H)-one], the “Rat mCl” value in series [1] is “++ (++: <100 μl min^−1 mg^−1)”. In series [2], the “Human mCl” value is recorded as “++ (++: <100 μl min^−1 mg^−1)”.

As for `Cn1nc(OCc2ccc(Cl)c(Cl)c2)c2scc(-c3ccncc3)c2c1=O` [Example 77, 7-[(3,4-dichlorobenzyl)oxy]-5-methyl-3-(pyridin-4-yl)thieno[2,3-d]pyridazin-4(5H)-one], the “Rat mCl” value in series [1] is reported as “++ (++: <100 μl min^−1 mg^−1)”. Further, the “Human mCl” value in series [2] was “+ (+: 100-220 μl min^−1 mg^−1)”.

For `Cn1nc(OCC2CCN(C(=O)OC(C)(C)C)CC2)c2scc(-c3ccncc3)c2c1=O` [Example 79, tert-butyl 4-({[5-methyl-4-oxo-3-(pyridin-4-yl)-4,5-dihydrothieno[2,3-d]pyridazin-7-yl]oxy}methyl)piperidine-1-carboxylate], in series [1], the “Rat mCl” value is given as “+ (+: 100-220 μl min^−1 mg^−1)”. In series [2], the “Human mCl” value is recorded as “+ (+: 100-220 μl min^−1 mg^−1)”.

Take `Cn1nc(OCc2ccc3c(c2)CN(C(=O)OC(C)(C)C)C3)c2scc(-c3ccncc3)c2c1=O` [Example 80, tert-butyl 5-({[5-methyl-4-oxo-3-(pyridin-4-yl)-4,5-dihydrothieno[2,3-d]pyridazin-7-yl]oxy}methyl)-1,3-dihydro-2H-isoindole-2-carboxylate]: the “Rat mCl” value in series [1] was “++ (++: <100 μl min^−1 mg^−1)”. Moreover, the “Human mCl” value in series [2] is “++ (++: <100 μl min^−1 mg^−1)”.

For the compound `Cn1nc(-c2ccccc2C(N)=O)c2scc(-c3ccncc3)c2c1=O` [Example 98, 2-[5-methyl-4-oxo-3-(pyridin-4-yl)-4,5-dihydrothieno[2,3-d]pyridazin-7-yl]benzamide], in series [1], the “Rat mCl” value was “++ (++: <100 μl min^−1 mg^−1)”. In addition, the “Human mCl” value in series [2] is given as “++ (++: <100 μl min^−1 mg^−1)”.

On to `Cn1nc(-c2ccc(OC(F)(F)F)cc2)c2scc(-c3ccncc3)c2c1=O` [Example 101, 5-methyl-3-(pyridin-4-yl)-7-[4-(trifluoromethoxy)phenyl]thieno[2,3-d]pyridazin-4(5H)-one], for which the “Rat mCl” value in series [1] is reported as “++ (++: <100 μl min^−1 mg^−1)”. For the same compound, in series [2], the “Human mCl” value is on record as “++ (++: <100 μl min^−1 mg^−1)”.

For `Cn1nc(OCC2CCNCC2)c2scc(-c3ccncc3)c2c1=O.O=C(O)C(F)(F)F` [Example 125, 5-methyl-7-(piperidin-4-ylmethoxy)-3-(pyridin-4-yl)thieno[2,3-d]pyridazin-4(5H)-one bis(trifluoroacetate)], in series [1], the “Rat mCl” value is “++ (++: <100 μl min^−1 mg^−1)”. In addition, the “Human mCl” value in series [2] is on record as “++ (++: <100 μl min^−1 mg^−1)”.

`N#Cc1cccc(-c2csc3c(-c4ccncc4)nn(CC(F)(F)F)c(=O)c23)c1` [Example 129, 3-[4-oxo-7-(pyridin-4-yl)-5-(2,2,2-trifluoroethyl)-4,5-dihydrothieno[2,3-d]pyridazin-3-yl]benzonitrile]: the “Rat mCl” value in series [1] is “++ (++: <100 μl min^−1 mg^−1)”. The “Human mCl” value in series [2] is “++ (++: <100 μl min^−1 mg^−1)”.

In the case of `CC(C)(C)n1nc(-c2ccncc2)c2scc(-c3ccncc3)c2c1=O` [Example 132, 5-tert-butyl-3,7-di(pyridin-4-yl)thieno[2,3-d]pyridazin-4(5H)-one], the “Rat mCl” value in series [1] is “++ (++: <100 μl min^−1 mg^−1)”. The “Human mCl” value in series [2] is given as “+ (+: 100-220 μl min^−1 mg^−1)”.

On to `O=c1c2c(-c3ccncc3)csc2c(-c2ccncc2)nn1C1CCCC1` [Example 134, 5-cyclopentyl-3,7-di(pyridin-4-yl)thieno[2,3-d]pyridazin-4(5H)-one], for which the “Rat mCl” value in series [1] was “+ (+: 100-220 μl min^−1 mg^−1)”. The “Human mCl” value in series [2] is reported as “∘ (∘ not avialable or >220 μl min^−1 mg^−1)”.

`O=c1c2c(-c3ccncc3)csc2c(-c2ccncc2)nn1CC1CCCO1` (centres unmarked) [Example 141, 3,7-di(pyridin-4-yl)-5-(tetrahydrofuran-2-ylmethyl)thieno[2,3-d]pyridazin-4(5H)-one]: the “Rat mCl” value in series [1] is on record as “++ (++: <100 μl min^−1 mg^−1)”. Besides, the “Human mCl” value in series [2] is “+ (+: 100-220 μl min^−1 mg^−1)”.

Source of the values: patent US9200005B2, “Inhibitor compounds of phosphodiesterase type 10A” (AbbVie Deutschland GmbH & Co. KG, priority 2013, dated 2015).
